Measured values reported in US11352394B2, “Cyclic cell penetrating peptides comprising beta-hairpin motifs and methods of making and using thereof” (Ohio State Innovation Foundation, priority 2016, dated 2022).
Bridge positions count the residues as written; N and C are the ends. Square brackets hold non-standard residues; d marks the D form. Ends that are not written are not given here. Phe(4-F) = N[C@@H](Cc1ccc(F)cc1)C(=O)O; 2Nal = N[C@@H](Cc1ccc2ccccc2c1)C(=O)O; d2Nal = N[C@H](Cc1ccc2ccccc2c1)C(=O)O; Dap = NC[C@H](N)C(=O)O

Test system: HeLa cells
Assay: Cellular (cytosolic) uptake of NF-labeled peptides by flow cytometry (MFI)
Assay type: cell-based
Settings: relative to CPP 1 (100%); mean ± S.D. of three independent experiments
Description: HeLa cells were treated with 5 μM peptide for 2 h, and their cell uptake efficiencies were determined by flow cytometry analysis. The mean fluorescence intensity (MFI) values derived from cytometry analyses reflect the amounts of peptides inside the cytosol and nucleus, whereas any NF-labeled peptide entrapped inside the acidic endosomes are invisible under the experimental conditions (Id.; Qian, Z et al. Chem. Commun. 2015, 51, 2162-2165).
The binding affinity of BH23 (unlabeled) for the Grb2 SH2 domain was then determined by examining its ability to compete with the FAM-labeled ligand for binding to the Grb2 SH2 domain by fluorescence polarization (FP). […] Next, BH23 was labeled with NF at the Asn side chain through a miniPEG-Lys linker and its cytosolic entry efficiency was quantitated by treating HeLa cells with 5 μM of the labeled peptide for 2 h before flow cytometry analysis. […] BH23 was also similarly labeled at the Asn side chain with FAM and its entry into HeLa cells was examined by live-cell confocal microscopy. […] Two control peptides (BH24 and BH25) were also prepared for cellular assays. BH24 and BH25 are structurally similar to BH23, except that BH24 contained a Tyr instead of the pY residue (FIG. 11), whereas in BH25 the two hydrophobic residues critical for cellular uptake (Nal-arg) were replaced with Ala-ala (FIG. 12).
BHT1 and BHT2 were labeled with naphthofluorescein (NF) and their cytosolic uptake into HeLa cells was determined by flow cytometry (Table 10).
Additional cell penetrating compounds were prepared and tested for cytosolic delivery. In these compounds there was no beta-hairpin turn creating moiety.

Substance | Cellular Uptake (MFI^NF, %), cytosolic delivery efficiency of CPPs without beta-hairpin moiety
131 (cyclo(F[2Nal]RRRRQ); SMILES N=C(N)NCCC[C@@H]1NC(=O)[C@H](CCCNC(=N)N)NC(=O)[C@H](CCCNC(=N)N)NC(=O)[C@H](Cc2ccc3ccccc3c2)NC(=O)[C@H](Cc2ccccc2)NC(=O)[C@H](CCC(N)=O)NC(=O)[C@H](CCCNC(=N)N)NC1=O) [Peptide 131] | 100 ± 6%
234 (FFRRRQ; cyclic) [Peptide 234] | 65%
235 (cyclo(FF[dR]R[dR]Q); SMILES N=C(N)NCCC[C@@H]1NC(=O)[C@@H](CCCNC(=N)N)NC(=O)[C@H](Cc2ccccc2)NC(=O)[C@H](Cc2ccccc2)NC(=O)[C@H](CCC(N)=O)NC(=O)[C@@H](CCCNC(=N)N)NC1=O) [Peptide 235] | 122%
236 (cyclo(FFR[dR]RQ); SMILES N=C(N)NCCC[C@@H]1NC(=O)[C@H](Cc2ccccc2)NC(=O)[C@H](Cc2ccccc2)NC(=O)[C@H](CCC(N)=O)NC(=O)[C@H](CCCNC(=N)N)NC(=O)[C@@H](CCCNC(=N)N)NC1=O) [Peptide 236] | 40%
237 (FRFRRQ; cyclic) [Peptide 237] | 15 ± 3%
238 (FRRFRQ; cyclic) [Peptide 238] | 38 ± 10%
239 (FRRRFQ; cyclic) [Peptide 239] | 25 ± 4%
240 (cyclo(G[2Nal]RRRQ); SMILES N=C(N)NCCC[C@@H]1NC(=O)[C@H](Cc2ccc3ccccc3c2)NC(=O)CNC(=O)[C@H](CCC(N)=O)NC(=O)[C@H](CCCNC(=N)N)NC(=O)[C@H](CCCNC(=N)N)NC1=O) [Peptide 240] | 49 ± 5%
241 (FFFRAQ; cyclic) [Peptide 241] | 52 ± 2%
242 (FFFRRQ; cyclic) [Peptide 242] | 125 ± 25%
243 (FFRRRRQ; cyclic) [Peptide 243] | 89 ± 27%
244 (FRRFRRQ; cyclic) [Peptide 244] | 31 ± 3%
245 (FRRRFRQ; cyclic) [Peptide 245] | 20 ± 3%
246 (RFFRRRQ; cyclic) [Peptide 246] | 63 ± 19%
247 (RFRRFRQ; cyclic) [Peptide 247] | 94 ± 9%
248 (FRFRRRQ; cyclic) [Peptide 248] | 132 ± 57%
249 (FFFRRRQ; cyclic) [Peptide 249] | 231 ± 43%
250 (FFRRRFQ; cyclic) [Peptide 250] | 158 ± 21%
252 (RRFFFRQ; cyclic) [Peptide 252] | 172 ± 24%
253 (FFRFRRQ; cyclic) [Peptide 253] | 106 ± 22%
254 (FFRRFRQ; cyclic) [Peptide 254] | 86 ± 12%
255 (FRRFFRQ; cyclic) [Peptide 255] | 109 ± 11%
256 (FRRFRFQ; cyclic) [Peptide 256] | 101 ± 16%
257 (FRFRFRQ; cyclic) [Peptide 257] | 105 ± 14%
258 (RFFRFRQ; cyclic) [Peptide 258] | 96 ± 31%
259 (cyclo(G[2Nal]RRRRQ); SMILES N=C(N)NCCC[C@@H]1NC(=O)[C@H](Cc2ccc3ccccc3c2)NC(=O)CNC(=O)[C@H](CCC(N)=O)NC(=O)[C@H](CCCNC(=N)N)NC(=O)[C@H](CCCNC(=N)N)NC(=O)[C@H](CCCNC(=N)N)NC1=O) [Peptide 259] | 55 ± 5%

Substance | Cellular Uptake (MFI^NF, %), cytosolic delivery efficiency of CPPs without beta-hairpin moiety
260 (FFFRRRRQ; cyclic) [Peptide 260] | 122 ± 20%
261 (RFFRRRRQ; cyclic) [Peptide 261] | 104 ± 5%
262 (RRFFRRRQ; cyclic) [Peptide 262] | 115 ± 20%
263 (RFFFRRRQ; cyclic) [Peptide 263] | 167 ± 10%
264 (RRFFFRRQ; cyclic) [Peptide 264] | 112 ± 20%
265 (FFRRFRRQ; cyclic) [Peptide 265] | 46 ± 2%
266 (FFRRRRFQ; cyclic) [Peptide 266] | 162 ± 16%
267 (FRRFFRRQ; cyclic) [Peptide 267] | 127 ± 22%
268 (FFFRRRRRQ; cyclic) [Peptide 268] | 145 ± 27%
269 (FFFRRRRRRQ; cyclic) [Peptide 269] | 141 ± 10%
270 (cyclo(F[2Nal]R[dR]R[dR]Q)) [Peptide 270] | 212 ± 42%
271 (cyclo([Phe(4-F)][Phe(4-F)]RRRRQ); SMILES N=C(N)NCCC[C@@H]1NC(=O)[C@H](CCCNC(=N)N)NC(=O)[C@H](CCCNC(=N)N)NC(=O)[C@H](Cc2ccc(F)cc2)NC(=O)[C@H](Cc2ccc(F)cc2)NC(=O)[C@H](CCC(N)=O)NC(=O)[C@H](CCCNC(=N)N)NC1=O) [Peptide 271] | 165 ± 22%
272 (cyclo(F[dF]FR[dR]RQ); SMILES N=C(N)NCCC[C@@H]1NC(=O)[C@H](Cc2ccccc2)NC(=O)[C@@H](Cc2ccccc2)NC(=O)[C@H](Cc2ccccc2)NC(=O)[C@H](CCC(N)=O)NC(=O)[C@H](CCCNC(=N)N)NC(=O)[C@@H](CCCNC(=N)N)NC1=O) [Peptide 272] | 230 ± 18%
273 (cyclo([dF]F[dF][dR]R[dR]Q); SMILES N=C(N)NCCC[C@@H]1NC(=O)[C@@H](CCCNC(=N)N)NC(=O)[C@@H](Cc2ccccc2)NC(=O)[C@H](Cc2ccccc2)NC(=O)[C@@H](Cc2ccccc2)NC(=O)[C@H](CCC(N)=O)NC(=O)[C@@H](CCCNC(=N)N)NC1=O) [Peptide 273] | 463 ± 94%
274 (cyclo([dF]F[dF]R[dR]RQ); SMILES N=C(N)NCCC[C@@H]1NC(=O)[C@@H](CCCNC(=N)N)NC(=O)[C@H](CCCNC(=N)N)NC(=O)[C@@H](Cc2ccccc2)NC(=O)[C@H](Cc2ccccc2)NC(=O)[C@@H](Cc2ccccc2)NC(=O)[C@H](CCC(N)=O)NC1=O) [Peptide 274] | 359 ± 66%
275 (cyclo(F[dF]F[dR]R[dR]Q); SMILES N=C(N)NCCC[C@@H]1NC(=O)[C@@H](CCCNC(=N)N)NC(=O)[C@H](Cc2ccccc2)NC(=O)[C@@H](Cc2ccccc2)NC(=O)[C@H](Cc2ccccc2)NC(=O)[C@H](CCC(N)=O)NC(=O)[C@@H](CCCNC(=N)N)NC1=O) [Peptide 275] | 236 ± 26%
276 (cyclo([dF]F[d2Nal][dR]R[dR]Q); also: further D-residues, places not given here) [Peptide 276] | 250 ± 37%
277 (cyclo([dF][2Nal][dF][dR]R[dR]Q)) [Peptide 277] | 267 ± 62%
278 (cyclo([d2Nal]F[dF][dR]R[dR]Q); also: further D-residues, places not given here) [Peptide 278] | 50 ± 9%
279 (cyclo(F[2Nal][dR]R[dR]Q)) [Peptide 279] | 76%
280 (cyclo([dF][2Nal][dR]R[dR]Q)) [Peptide 280] | 214%
281 (Ac-K[dF]FR[dR]R[dR]D; lactam 1-8 (inferred); not fully specified; printed as Ac-(Lys-fFRrRrD)) [Peptide 281] | 129 ± 9%
282 (Ac-[Dap][dF]FR[dR]R[dR]D; lactam 1-8 (inferred); not fully specified; printed as Ac-(Dap-fFRrRrD)) [Peptide 282] | 126 ± 33%
283 (CWWRRRRC; disulfide 1-8) [Peptide 283] | 51%
284 (CWWWRRRRC; disulfide 1-9) [Peptide 284] | 67%
